Source: patent US9694045B2, “Pharmaceutical composition for preventing or treating inflammatory diseases comprising trachelospermi caulis extract and paeonia suffruticosa andrews extract, and method for preparing the same” (SINIL PHARMACEUTICAL CO., LTD., priority 2010, dated 2017)

What was measured:
Type in all cases: in vivo
IFN-γ = IFN-γ production of splenocytes of arthritis-induced mice (ELISA); details: positive control group (bucillamine 300 mg/kg oral)
Protocol: (§1) Bovine type II collagen and adjuvant were separately emulsified, and each emulsion was subcutanesously injected at a dose of 100 μg to the tail. Three weeks later, a booster was achieved by the intraperitoneal injection of 100 μg of bovine type II collagen to induce arthritis. Immediately after the induction, drugs were administered for 21 days and their inhibitory activity against arthritis was measured. The mice were orally administered with suspensions of indomethacin (1 mg/kg), meloxicam (4 mg/kg), bucillamine (300 mg/kg), and the mixture of extracts from Trachelospermi Caulis and Paeonia Suffruticosa Andrews (SI-000902), every day. For comparison, a normal group (arthritis not induced) and a control (administered with vehicle) were employed. The extract mixture (solid extract, soft extract) was dispersed at a concentration of 20, 50, 100, 200 and 400 mg/kg in a 1% carboxymethyl-cellulose sodium solution before the oral administration. Severity of edema was measured in the four feet of each mouse by blind test with the naked eye every three days and evaluated as grades 0 to 4. The spleen was aseptically excised from arthritis-induced mice and used to give a cell suspension. […] The level of the cytokines IFN-γ and IL-2 in the medium was measured using an ELISA kit (R&D systems) to examine the inhibitory effect of the extract mixture on the cytokines.

[1] = test system: splenocytes of arthritis-induced mice; test: Splenocyte proliferation in arthritis-induced mice (BrdU ELISA); details: Mus musculus, positive control group (bucillamine 300 mg/kg oral)
Protocol: Bovine type II collagen and adjuvant were separately emulsified, and each emulsion was subcutanesously injected at a dose of 100 μg to the tail. Three weeks later, a booster was achieved by the intraperitoneal injection of 100 μg of bovine type II collagen to induce arthritis. Immediately after the induction, drugs were administered for 21 days and their inhibitory activity against arthritis was measured. The mice were orally administered with suspensions of indomethacin (1 mg/kg), meloxicam (4 mg/kg), bucillamine (300 mg/kg), and the mixture of extracts from Trachelospermi Caulis and Paeonia Suffruticosa Andrews (SI-000902), every day. For comparison, a normal group (arthritis not induced) and a control (administered with vehicle) were employed. The extract mixture (solid extract, soft extract) was dispersed at a concentration of 20, 50, 100, 200 and 400 mg/kg in a 1% carboxymethyl-cellulose sodium solution before the oral administration. Severity of edema was measured in the four feet of each mouse by blind test with the naked eye every three days and evaluated as grades 0 to 4. The spleen was aseptically excised from arthritis-induced mice, minced and filtered through a filter to separate and collect only the cells. […] After incubation, the cells were fixed, and suppressive activity against splenocyte proliferation was determined using a BrdU ELISA cell proliferation assay kit (Roche).

IL-2 = IL-2 production of splenocytes of arthritis-induced mice (ELISA); details: positive control group (bucillamine 300 mg/kg oral)
Protocol: as §1

## CC(C)(S)C(=O)N[C@@H](CS)C(=O)O [bucillamine]
IFN-γ
  suppression of IFN-γ: 88.5%
[1]
  inhibition at 300 mg/kg: 51.1%
IL-2
  suppression of IL-2: 39.1%
